Measured values as given in article PMC7044277 (Nature Communications, 2020).
Where “and” joins values, the source holds several entries; their conditions need not be identical. Identical values can stand only once.

Columns and labels:
DRD3 = DRD3 (Homo sapiens, UniProt P35462); assay: β-arrestin2 recruitment (Tango); format: cell-based
[1] = target: DRD2 (D2 long receptor) wild-type (Homo sapiens, UniProt P14416); assay: Radioligand competition binding, [3H]-N-methylspiperone, HEK293T membranes; conditions: DRD2; [3H]-methylspiperone (0.8-1.0 nM); read-out: Ki
DRD2 (D2 long receptor) wild-type, sequence (P14416 whole entry): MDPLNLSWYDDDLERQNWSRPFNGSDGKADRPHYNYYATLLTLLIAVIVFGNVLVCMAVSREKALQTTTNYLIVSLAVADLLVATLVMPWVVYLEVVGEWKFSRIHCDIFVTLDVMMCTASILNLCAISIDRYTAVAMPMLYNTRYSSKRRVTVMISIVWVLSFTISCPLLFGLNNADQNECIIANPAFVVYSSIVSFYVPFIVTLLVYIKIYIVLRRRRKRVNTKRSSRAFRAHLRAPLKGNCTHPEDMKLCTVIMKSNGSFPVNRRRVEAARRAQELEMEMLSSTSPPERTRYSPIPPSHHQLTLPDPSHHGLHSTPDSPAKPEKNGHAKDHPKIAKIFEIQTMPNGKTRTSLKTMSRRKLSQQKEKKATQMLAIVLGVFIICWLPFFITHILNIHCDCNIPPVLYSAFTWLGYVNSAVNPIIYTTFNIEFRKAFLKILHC

320 non-olfactory GPCRs = format: cell-based; conditions: compound at 1 μM
DRD2 (D2 long receptor) = DRD2 (D2 long receptor) (Homo sapiens, UniProt P14416); assay: β-arrestin2 recruitment (Tango), HTLA cells; format: cell-based; conditions: for response, concentration-response data point (replicates): Fig_S10a, drug alone
DRD2 (D2 long receptor), sequence (P14416 whole entry): as above

DRD3 wild-type = DRD3 wild-type (Homo sapiens, UniProt P35462); assay: Radioligand competition binding, [3H]-N-methylspiperone; conditions: DRD3 wild-type; read-out: pKi ± SEM (converted)
DRD3 wild-type, sequence (P35462 whole entry): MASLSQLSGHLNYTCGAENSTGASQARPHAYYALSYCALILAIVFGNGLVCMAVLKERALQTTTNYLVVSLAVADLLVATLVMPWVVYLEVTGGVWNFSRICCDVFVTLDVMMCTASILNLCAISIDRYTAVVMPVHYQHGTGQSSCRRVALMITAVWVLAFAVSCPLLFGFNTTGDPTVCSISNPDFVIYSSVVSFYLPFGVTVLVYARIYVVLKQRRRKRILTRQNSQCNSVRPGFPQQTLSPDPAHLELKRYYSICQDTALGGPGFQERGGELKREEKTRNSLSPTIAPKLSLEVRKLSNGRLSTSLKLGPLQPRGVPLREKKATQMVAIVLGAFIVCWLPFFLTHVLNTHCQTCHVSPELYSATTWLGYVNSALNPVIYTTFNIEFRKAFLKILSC

[2] = test system: serotonin receptor (subtype not given; reference agonist serotonin); assay: β-arrestin2 recruitment (Tango), agonist activity, source data Fig_S10l; format: cell-based, human; conditions: Log[Drug] -6.52; drug alone

DRD3, sequence (P35462 whole entry): as above

SMILES: CCOc1cccc2cc([C@@H](C)NCC3(O)CCCCC3)oc12 [O4RE6]
- β-arrestin2 recruitment agonist activity (DRD3; DRD3, Tango): partial agonist
- EC50 (DRD3; DRD3, Tango, read-out: EC50 ± SEM): 808 ± 22 nM
- β-arrestin2 recruitment response at DRD3 (source data, replicate values) (DRD3; Log[Drug] -5): 4.576 and 3.7 and 3.62 and 3.736 and 5.471 and 3.308 and 2.328
- β-arrestin2 recruitment response at DRD3 (source data, replicate values) (DRD3; Log[Drug] -5.52): 3.058 and 2.935 and 3.394 and 3.834 and 3.658 and 1.004 and 1.077
- β-arrestin2 recruitment response at DRD3 (source data, replicate values) (DRD3; Log[Drug] -6): 2.938 and 3.023 and 2.856 and 3.025 and 3.1562 and 0.3638 and 0.509
- β-arrestin2 recruitment response at DRD3 (source data, replicate values) (DRD3; Log[Drug] -6.52): 3.396 and 2.937 and 2.899 and 3.295 and 4.17 and 0.7903 and 0.1505
- β-arrestin2 recruitment response at DRD3 (source data, replicate values) (DRD3; Log[Drug] -7): 2.933 and 3.147 and 2.775 and 2.952 and 4.646 and 0.5125 and 2.883
- β-arrestin2 recruitment response at DRD3 (source data, replicate values) (DRD3; Log[Drug] -7.52): 3.0214 and 3.313 and 2.803 and 3.9395 and 2.8785 and -0.1416 and 0.9462
- β-arrestin2 recruitment response at DRD3 (source data, replicate values) (DRD3; Log[Drug] -8): 3.394 and 3.834 and 3.658 and 3.117 and 3.387 and 1.887 and -0.07348
- β-arrestin2 recruitment response at DRD3 (source data, replicate values) (DRD3; Log[Drug] -8.52): 2.856 and 3.025 and 3.1562 and 3.299 and 3.446 and 1.2903 and 3.595
- β-arrestin2 recruitment response at DRD3 (source data, replicate values) (DRD3; Log[Drug] -9): 2.899 and 3.295 and 4.17 and 2.956 and 3.124 and 0.2993 and 1.159
- β-arrestin2 recruitment response at DRD3 (source data, replicate values) (DRD3; Log[Drug] -9.52): 2.775 and 2.952 and 4.646 and 3.025 and 2.94 and 0.3512 and -0.2025
- β-arrestin2 recruitment response at DRD3 (source data, replicate values) (DRD3; Log[Drug] -10): 2.803 and 3.9395 and 2.8785 and 2.928 and 3.403 and 1.077 and 2.238
- β-arrestin2 recruitment response at DRD3 (source data, replicate values) (DRD3; Log[Drug] -10.52): 5.884 and 3.155 and 4.6156 and 3.056 and 2.943 and 1.1541 and 0.8548
- β-arrestin2 recruitment response at DRD3 (source data, replicate values) (DRD3; Log[Drug] -11): 3.18 and 2.961 and 3.126 and 2.927 and 2.942 and 0.5878 and 2.511
- β-arrestin2 recruitment response at DRD3 (source data, replicate values) (DRD3; Log[Drug] -11.52): 2.6928 and 2.862 and 2.962 and 3.132 and 3.725 and -0.276 and 0.7993
- Emax (DRD3; read-out: Emax relative to quinpirole response, DRD3, Tango): 21.4%
- Ki [1]: 690 nM
- agonism across 320 nonolfactory GPCRs (320 non-olfactory GPCRs): agonist efficacy at DRD2 and DRD3
- β-arrestin2 recruitment agonist activity (DRD2 (D2 long receptor); DRD2, Tango): full agonist
- EC50 (DRD2 (D2 long receptor); DRD2, β-arrestin2 recruitment (Tango), read-out: EC50 ± SEM): 48.8 ± 9.47 nM
- response, concentration-response data point (replicates) (DRD2 (D2 long receptor); Log[Drug] -5): 104.045 and 116.205 and 96.7104 and 116.434 and 93.993 and 105.729 and 95.4582 and 106.414 and 85.5052
- response, concentration-response data point (replicates) (DRD2 (D2 long receptor); Log[Drug] -5.52): 89.1788 and 85.4445 and 90.8217 and 84.5796 and 80.0855 and 101.122 and 96.0613 and 81.9697 and 99.3385
- response, concentration-response data point (replicates) (DRD2 (D2 long receptor); Log[Drug] -6): 82.8973 and 82.5495 and 79.2486 and 94.3704 and 78.2631 and 78.6908 and 80.3531 and 91.2175 and 73.5194
- response, concentration-response data point (replicates) (DRD2 (D2 long receptor); Log[Drug] -6.52): 72.8482 and 85.473 and 74.6038 and 82.6009 and 103.942 and 82.378 and 70.1593 and 68.4699 and 74.397
- response, concentration-response data point (replicates) (DRD2 (D2 long receptor); Log[Drug] -7): 71.4846 and 69.3009 and 62.1089 and 68.8602 and 55.9009 and 59.7861 and 54.6819 and 54.8285 and 54.3284
- response, concentration-response data point (replicates) (DRD2 (D2 long receptor); Log[Drug] -7.52): 50.7715 and 50.9759 and 58.0792 and 57.6214 and 43.2407 and 45.9376 and 55.9749 and 62.7315 and 56.5853
- response, concentration-response data point (replicates) (DRD2 (D2 long receptor); Log[Drug] -8): 39.7841 and 36.3747 and 29.4664 and 31.1292 and 29.8397 and 30.2988 and 27.2382 and 26.622 and 26.0732
- response, concentration-response data point (replicates) (DRD2 (D2 long receptor); Log[Drug] -8.52): 13.2168 and 14.3867 and 13.161 and 13.9303 and 10.9069 and 10.856 and 10.5462 and 11.4912 and 11.2421
- response, concentration-response data point (replicates) (DRD2 (D2 long receptor); Log[Drug] -9): 7.123 and 6.617 and 6.837 and 5.043 and 6.064 and 6.895 and 5.588 and 6.122 and 5.826
- response, concentration-response data point (replicates) (DRD2 (D2 long receptor); Log[Drug] -11): 5.0524
- response, concentration-response data point (replicates) (DRD2 (D2 long receptor); Log[Drug] -11.52): 4.975 and 5.004 and 4.993 and 4.845 and 4.81 and 4.615 and 4.945 and 4.7318 and 4.6555
- response, concentration-response data point (replicates) (DRD2 (D2 long receptor); Log[Drug] -12): 4.9053 and 4.975 and 5.325 and 4.582 and 4.593 and 4.629 and 5.065 and 4.845 and 4.581
- Emax (DRD2 (D2 long receptor); HTLA, read-out: Emax relative to quinpirole response, DRD2, Tango): 99.6%
- β-arrestin2 recruitment response at DRD2 (source data, replicate values) (DRD2 (D2 long receptor); Log[Drug] -5): 73.5777 and 57.7969 and 60.7943 and 65.7822 and 71.9755 and 71.4753 and 62.0106
- β-arrestin2 recruitment response at DRD2 (source data, replicate values) (DRD2 (D2 long receptor); Log[Drug] -5.52): 50.6787 and 47.7474 and 41.401 and 56.0167 and 52.8546 and 51.367 and 55.6817
- β-arrestin2 recruitment response at DRD2 (source data, replicate values) (DRD2 (D2 long receptor); Log[Drug] -6): 39.3966 and 41.1099 and 37.2084 and 41.7585 and 38.5021 and 38.079 and 42.2149
- β-arrestin2 recruitment response at DRD2 (source data, replicate values) (DRD2 (D2 long receptor); Log[Drug] -6.52): 17.548 and 17.9218 and 22.2395 and 30.2893 and 22.7451 and 19.4102 and 21.7916
- β-arrestin2 recruitment response at DRD2 (source data, replicate values) (DRD2 (D2 long receptor); Log[Drug] -7): 9.564 and 7.739 and 7.708 and 7.415 and 7.649 and 7.113 and 9.501
- β-arrestin2 recruitment response at DRD2 (source data, replicate values) (DRD2 (D2 long receptor); Log[Drug] -7.52): 5.75 and 5.841 and 5.282 and 5.619 and 6.782 and 5.749 and 5.8801
- β-arrestin2 recruitment response at DRD2 (source data, replicate values) (DRD2 (D2 long receptor); Log[Drug] -8): 5.434 and 5.45 and 5.389 and 5.042 and 5.329 and 5.148 and 5.345
- β-arrestin2 recruitment response at DRD2 (source data, replicate values) (DRD2 (D2 long receptor); Log[Drug] -8.52): 5.277 and 5.01 and 4.9419 and 4.98 and 5.0858 and 5.308 and 5.178
- β-arrestin2 recruitment response at DRD2 (source data, replicate values) (DRD2 (D2 long receptor); Log[Drug] -9): 5.4097 and 5.385 and 5.128 and 4.863 and 4.947 and 4.805 and 4.8829
- β-arrestin2 recruitment response at DRD2 (source data, replicate values) (DRD2 (D2 long receptor); Log[Drug] -9.52): 5.139 and 4.887 and 4.831 and 4.75 and 5.079 and 5.123 and 4.823
- β-arrestin2 recruitment response at DRD2 (source data, replicate values) (DRD2 (D2 long receptor); Log[Drug] -10): 5.431 and 4.786 and 4.659 and 4.856 and 4.756 and 4.79 and 4.8682
- β-arrestin2 recruitment response at DRD2 (source data, replicate values) (DRD2 (D2 long receptor); Log[Drug] -10.52): 5.022 and 4.798 and 4.776 and 4.763 and 4.86 and 4.945 and 4.841
- β-arrestin2 recruitment response at DRD2 (source data, replicate values) (DRD2 (D2 long receptor); Log[Drug] -11): 4.915 and 4.765 and 4.615 and 4.7302 and 4.774 and 4.749 and 4.971
- β-arrestin2 recruitment response at DRD2 (source data, replicate values) (DRD2 (D2 long receptor); Log[Drug] -11.52): 4.946 and 4.662 and 4.627 and 4.695 and 4.751 and 4.656 and 4.732
- Ki (DRD3 wild-type): 115 nM
- response, Fig_S10l, replicate values [2]: -3.85
